Data: ChEMBL document CHEMBL1201862, “PubChem BioAssay data set” (2004)
Active and inactive are the calls of the source.

Legend:
[1] = NIH-3T3 fibroblast cytotoxicity, dose response, cytotoxicity control, cell-based, fluorescence, Alamar Blue, secondary assay (AID 2327); type: functional;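 also: NIH-3T3 mouse fibroblasts cultured with fluconazole at 8 µg/mL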
[2] = fluconazole-exposed Candida albicans growth modulators – fluorescence, retest, confirmation (AID 2467); type: functional, cell-based
[3] = HEK-293T viability loss after treatment – luminescence, T-cell screen hits, cytotoxicity control for TCR NF-kB inhibitor project, dose response (AID 489026); type: functional, cell-based;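 also: cells exposed to compound about 14 hours before the viability readout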
[4] = system: INS1; experiment: INS-1E survival protection against cytokine death – cell-based, luminescence, retest, dose response (AID 449756); type: functional; conditions: Rattus norvegicus;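 also: cell death triggered by IL-1 beta plus TNF-alpha plus IFN-gamma mixture; protective hits raise ATP signal compared with cytokine alone wells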
[5] = biological target: T1, DNA repair protein RAD52 homolog (Homo sapiens, UniProt P43351); type: functional, biochemical
T1 sequence (P43351 whole entry): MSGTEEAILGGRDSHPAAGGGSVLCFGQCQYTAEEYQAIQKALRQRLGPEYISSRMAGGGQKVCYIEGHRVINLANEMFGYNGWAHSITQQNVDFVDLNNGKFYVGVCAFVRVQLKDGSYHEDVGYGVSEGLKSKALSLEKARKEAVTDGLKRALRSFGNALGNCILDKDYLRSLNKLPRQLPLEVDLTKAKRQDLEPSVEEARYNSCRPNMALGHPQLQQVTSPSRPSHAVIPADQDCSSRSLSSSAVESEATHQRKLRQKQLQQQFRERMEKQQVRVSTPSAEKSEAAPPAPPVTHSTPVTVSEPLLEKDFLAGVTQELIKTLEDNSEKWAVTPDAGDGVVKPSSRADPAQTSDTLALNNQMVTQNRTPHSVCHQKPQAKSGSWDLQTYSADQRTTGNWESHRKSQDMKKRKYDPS

[6] = biological target: DNA dC->dU-editing enzyme APOBEC-3G (Homo sapiens, UniProt Q9HC16); experiment: Dose Response confirmation of small molecule APOBEC3G DNA Deaminase Inhibitors via a fluorescence-based single-stranded DNA deaminase assay. [Related pubchem assays (depositor defined):AID493012, AID493028]; type: functional
[7] = biological target: T2, Carboxy-terminal domain RNA polymerase II polypeptide A small phosphatase 1 (Homo sapiens, UniProt Q9GZU7); experiment: CTDSP1 inhibitors, concentration-response, biochemical, absorbance readout, ultra-high-throughput screen actives (AID 540297); type: functional
T2 sequence (Q9GZU7 whole entry): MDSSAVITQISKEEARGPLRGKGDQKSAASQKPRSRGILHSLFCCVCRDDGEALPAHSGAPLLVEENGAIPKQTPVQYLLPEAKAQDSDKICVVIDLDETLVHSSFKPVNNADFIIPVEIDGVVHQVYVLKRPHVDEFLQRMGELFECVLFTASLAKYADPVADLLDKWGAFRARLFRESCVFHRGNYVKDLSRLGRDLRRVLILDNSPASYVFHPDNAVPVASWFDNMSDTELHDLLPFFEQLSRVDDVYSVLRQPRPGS

[8] = system: HEK293; experiment: EBV LMP1 TES2 canonical NF-kB signalling blockers – cell-based, HEK293, luciferase, cherry-pick, dose response (AID 588343); type: functional; conditions: Homo sapiens
[9] = biological target: T3, Estrogen receptor (Homo sapiens, UniProt P03372);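 also: potency for inhibiting coactivator peptide recruitment to the receptor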
T3 sequence (P03372 whole entry): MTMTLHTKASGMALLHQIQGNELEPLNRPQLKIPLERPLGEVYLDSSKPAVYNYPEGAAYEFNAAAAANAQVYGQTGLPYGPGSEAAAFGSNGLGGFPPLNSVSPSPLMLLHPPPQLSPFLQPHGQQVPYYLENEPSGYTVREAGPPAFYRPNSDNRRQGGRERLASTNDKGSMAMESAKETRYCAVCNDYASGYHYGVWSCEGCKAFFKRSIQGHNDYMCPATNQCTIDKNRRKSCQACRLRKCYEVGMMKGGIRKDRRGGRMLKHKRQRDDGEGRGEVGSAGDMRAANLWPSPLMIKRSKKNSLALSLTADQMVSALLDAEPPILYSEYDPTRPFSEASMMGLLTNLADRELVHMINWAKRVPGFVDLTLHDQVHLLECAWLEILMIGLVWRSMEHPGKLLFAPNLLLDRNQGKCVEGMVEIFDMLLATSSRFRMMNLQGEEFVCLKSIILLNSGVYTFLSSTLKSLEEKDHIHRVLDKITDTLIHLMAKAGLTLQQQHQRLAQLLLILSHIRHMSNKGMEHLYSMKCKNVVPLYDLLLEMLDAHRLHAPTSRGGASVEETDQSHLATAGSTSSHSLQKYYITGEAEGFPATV

[10] = system: HEK293; experiment: inhibition of NOD1-driven NF-kB reporter – cell-based, luminescence, uHTS, primary screen (AID 1578); type: functional; conditions: Homo sapiens
[11] = system: HEK293; experiment: cells; type: functional, cell-based; conditions: Homo sapiens
[12] = system: HEK293; experiment: cells; type: functional, cell-based; conditions: Homo sapiens; remark: listed apart in the source
[13] = biological target: Nucleotide-binding oligomerization domain-containing protein 2 (Homo sapiens, UniProt Q9HC29); experiment: inhibition of NOD2-driven NF-kB reporter – cell-based, luminescence, uHTS, HEK293 (AID 1566); type: functional
[14] = system: HEK293; experiment: NOD2 signaling inhibitors in MDP-stimulated cells, cell-based, uHTS, luminescence (AID 2001); type: functional; conditions: Homo sapiens
[15] = system: HEK293; experiment: cells; type: functional, cell-based; conditions: Homo sapiens; remark: listed apart in the source
[16] = biological target: Glyceraldehyde-3-phosphate dehydrogenase (Homo sapiens, UniProt P04406)
[17] = HPDE-C7 pancreatic duct cell viability loss – fluorescence, HTS (AID 430); type: functional, cell-based; conditions: Homo sapiens
[18] = viability loss of HPDE-C7K cells – cell-based, fluorescence, HTS, primary screen (AID 431); type: functional; conditions: Homo sapiens
[19] = reduction of Shn3 3'UTR-driven luciferase in osteoblasts – cell-based, Clone20 osteoblasts, firefly luciferase, cherry-picked, dose response (AID 624132); type: functional;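 also: firefly luciferase luminescence from reporter carrying the Shn3 3'UTR in osteoblasts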
[20] = loss of viability in HepG2 cells – cell-based, CellTiter-Glo, cherry-picked, cytotoxicity control for Shn3 inhibitor project, dose response (AID 624134); type: functional
[21] = non-specific 3'UTR reporter inhibition in Clone20-Shn3RL – cell-based, Renilla luciferase, cherry-picked, counter-screen for Shn3 inhibitor project, dose response (AID 624133); type: functional
[22] = biological target: Cytochrome P450 2C19 (Homo sapiens, UniProt P33261); experiment: Cytochrome panel assay with activity outcomes. Panel member name: p450-cyp2c19 Compounds with AC50 equal or less than 10 uM are considered active; type: functional; conditions: read-out: AC50
[23] = biological target: T4, Mitochondrial peptide methionine sulfoxide reductase (Bos taurus, UniProt P54149); experiment: Absorbance-based biochemical high throughput dose response assay for activators of Methionine sulfoxide reductase A (MsrA).; type: functional
T4 sequence (P54149 whole entry): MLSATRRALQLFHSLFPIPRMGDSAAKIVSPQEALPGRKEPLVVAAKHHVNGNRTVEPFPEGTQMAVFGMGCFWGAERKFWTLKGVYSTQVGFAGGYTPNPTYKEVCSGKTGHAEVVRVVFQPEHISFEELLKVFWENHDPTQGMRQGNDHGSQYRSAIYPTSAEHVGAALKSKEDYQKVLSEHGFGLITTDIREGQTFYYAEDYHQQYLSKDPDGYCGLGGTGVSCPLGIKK

[24] = biological target: Cytochrome P450 3A4 (Homo sapiens, UniProt P08684);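 also: CYP3A4 tested as one member of a cytochrome P450 panel screen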
[25] = biological target: Cytochrome P450 2C9 (Homo sapiens, UniProt P11712)
[26] = viability of uninfected HEp-2 cells – cell-based, HTS, cytotoxicity control for RSV inhibitor project, dose response (AID 2410); type: functional; conditions: human respiratory syncytial virus
[27] = biological target: T5, Bcl-2-related protein A1 (Mus musculus, UniProt Q07440); type: functional;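 also: confirmatory dose–response counterscreen on Bfl-1, used to check hits from a UBC13 polyubiquitin inhibitor campaign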
T5 sequence (Q07440 whole entry): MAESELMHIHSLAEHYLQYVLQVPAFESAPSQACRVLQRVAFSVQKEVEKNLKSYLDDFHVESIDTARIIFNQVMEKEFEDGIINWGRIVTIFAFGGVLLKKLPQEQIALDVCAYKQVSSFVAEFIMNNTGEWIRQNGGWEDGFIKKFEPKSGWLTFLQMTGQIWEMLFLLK

[28] = biological target: T6, Ubiquitin-conjugating enzyme E2 N (Homo sapiens, UniProt P61088); type: functional
T6 sequence (P61088 whole entry): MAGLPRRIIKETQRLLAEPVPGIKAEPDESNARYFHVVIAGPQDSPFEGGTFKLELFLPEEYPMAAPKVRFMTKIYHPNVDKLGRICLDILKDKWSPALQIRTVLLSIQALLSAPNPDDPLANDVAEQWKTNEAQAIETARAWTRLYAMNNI

[29] = biological target: T6, Ubiquitin-conjugating enzyme E2 N; type: functional; remark: listed apart in the source

Chain of Cytochrome P450 2C9 (P11712 whole entry): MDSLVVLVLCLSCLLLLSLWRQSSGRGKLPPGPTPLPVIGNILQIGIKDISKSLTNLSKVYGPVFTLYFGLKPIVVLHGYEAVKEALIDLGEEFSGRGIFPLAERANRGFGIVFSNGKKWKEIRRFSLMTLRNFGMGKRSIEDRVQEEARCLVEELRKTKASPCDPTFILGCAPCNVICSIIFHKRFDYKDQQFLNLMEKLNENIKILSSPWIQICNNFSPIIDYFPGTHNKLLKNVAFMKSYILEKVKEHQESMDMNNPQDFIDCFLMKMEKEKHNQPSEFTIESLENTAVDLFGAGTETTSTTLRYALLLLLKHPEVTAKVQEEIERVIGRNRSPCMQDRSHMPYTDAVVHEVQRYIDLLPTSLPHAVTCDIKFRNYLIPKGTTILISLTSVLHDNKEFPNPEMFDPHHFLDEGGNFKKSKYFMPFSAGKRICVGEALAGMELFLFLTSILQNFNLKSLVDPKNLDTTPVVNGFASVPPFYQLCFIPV
Chain of Glyceraldehyde-3-phosphate dehydrogenase (P04406 whole entry): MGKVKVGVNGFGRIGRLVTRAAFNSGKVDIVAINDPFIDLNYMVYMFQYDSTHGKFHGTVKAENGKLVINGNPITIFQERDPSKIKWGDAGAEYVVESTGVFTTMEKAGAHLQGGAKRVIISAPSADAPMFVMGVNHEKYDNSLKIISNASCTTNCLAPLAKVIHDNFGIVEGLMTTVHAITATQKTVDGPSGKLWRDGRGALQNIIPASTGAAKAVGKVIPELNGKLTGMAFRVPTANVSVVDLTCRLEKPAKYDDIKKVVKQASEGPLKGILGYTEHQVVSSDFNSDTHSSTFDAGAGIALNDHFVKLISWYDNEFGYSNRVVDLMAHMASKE
Chain of Cytochrome P450 2C19 (P33261 whole entry): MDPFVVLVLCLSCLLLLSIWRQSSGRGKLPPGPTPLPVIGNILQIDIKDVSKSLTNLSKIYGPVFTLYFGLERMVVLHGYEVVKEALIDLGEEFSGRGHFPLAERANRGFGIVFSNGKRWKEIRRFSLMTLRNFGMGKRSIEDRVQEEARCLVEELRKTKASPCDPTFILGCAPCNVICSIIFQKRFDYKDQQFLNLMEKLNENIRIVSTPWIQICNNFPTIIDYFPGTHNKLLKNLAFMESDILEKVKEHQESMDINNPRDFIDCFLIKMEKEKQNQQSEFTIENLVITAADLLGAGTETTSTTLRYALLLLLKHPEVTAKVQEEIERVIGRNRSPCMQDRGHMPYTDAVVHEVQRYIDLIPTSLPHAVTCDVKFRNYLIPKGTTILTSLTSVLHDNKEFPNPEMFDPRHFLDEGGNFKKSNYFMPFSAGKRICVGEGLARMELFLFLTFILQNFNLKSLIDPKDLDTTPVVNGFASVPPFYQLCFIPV
Chain of Nucleotide-binding oligomerization domain-containing protein 2 (Q9HC29 whole entry, the tested form may be a part): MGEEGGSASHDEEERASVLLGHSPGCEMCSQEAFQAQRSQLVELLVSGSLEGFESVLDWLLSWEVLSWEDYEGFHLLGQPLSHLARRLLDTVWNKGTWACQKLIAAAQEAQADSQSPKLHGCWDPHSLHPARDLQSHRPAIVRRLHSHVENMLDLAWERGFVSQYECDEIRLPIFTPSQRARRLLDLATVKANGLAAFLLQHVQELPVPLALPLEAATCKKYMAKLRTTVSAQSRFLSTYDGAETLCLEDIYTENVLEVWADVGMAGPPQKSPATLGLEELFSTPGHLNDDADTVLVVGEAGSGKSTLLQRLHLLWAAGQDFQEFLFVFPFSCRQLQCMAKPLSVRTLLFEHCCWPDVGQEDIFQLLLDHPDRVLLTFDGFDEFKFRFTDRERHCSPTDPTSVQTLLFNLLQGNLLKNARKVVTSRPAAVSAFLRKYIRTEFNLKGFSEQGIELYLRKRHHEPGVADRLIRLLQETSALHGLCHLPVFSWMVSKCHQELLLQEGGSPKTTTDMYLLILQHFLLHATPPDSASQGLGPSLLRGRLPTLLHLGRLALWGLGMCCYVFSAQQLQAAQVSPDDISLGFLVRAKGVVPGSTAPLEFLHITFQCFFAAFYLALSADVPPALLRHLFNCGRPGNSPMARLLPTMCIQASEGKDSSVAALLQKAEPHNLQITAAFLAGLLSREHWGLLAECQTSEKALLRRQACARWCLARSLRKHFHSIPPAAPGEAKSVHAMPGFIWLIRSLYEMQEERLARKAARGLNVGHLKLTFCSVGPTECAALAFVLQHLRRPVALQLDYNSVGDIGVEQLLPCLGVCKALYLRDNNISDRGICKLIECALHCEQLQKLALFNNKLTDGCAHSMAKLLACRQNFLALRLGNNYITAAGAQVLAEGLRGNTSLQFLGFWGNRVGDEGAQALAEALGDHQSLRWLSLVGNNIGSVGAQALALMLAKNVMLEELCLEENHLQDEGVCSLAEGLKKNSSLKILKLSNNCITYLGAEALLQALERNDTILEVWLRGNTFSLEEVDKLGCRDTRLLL
Chain of Cytochrome P450 3A4 (P08684 whole entry): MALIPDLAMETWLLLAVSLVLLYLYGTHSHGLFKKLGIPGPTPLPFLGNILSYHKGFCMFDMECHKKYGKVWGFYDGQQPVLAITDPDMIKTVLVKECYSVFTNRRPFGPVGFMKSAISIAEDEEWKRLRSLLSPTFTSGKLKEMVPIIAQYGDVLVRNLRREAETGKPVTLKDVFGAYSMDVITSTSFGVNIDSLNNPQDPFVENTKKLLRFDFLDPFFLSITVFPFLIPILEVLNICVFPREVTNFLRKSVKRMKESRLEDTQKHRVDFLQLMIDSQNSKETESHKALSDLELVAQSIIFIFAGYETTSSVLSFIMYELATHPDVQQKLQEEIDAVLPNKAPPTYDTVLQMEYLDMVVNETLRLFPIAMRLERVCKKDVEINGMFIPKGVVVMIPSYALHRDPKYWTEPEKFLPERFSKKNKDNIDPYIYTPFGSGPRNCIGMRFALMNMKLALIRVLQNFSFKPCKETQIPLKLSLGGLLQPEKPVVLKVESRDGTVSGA
Chain of DNA dC->dU-editing enzyme APOBEC-3G (Q9HC16 whole entry, the tested form may be a part): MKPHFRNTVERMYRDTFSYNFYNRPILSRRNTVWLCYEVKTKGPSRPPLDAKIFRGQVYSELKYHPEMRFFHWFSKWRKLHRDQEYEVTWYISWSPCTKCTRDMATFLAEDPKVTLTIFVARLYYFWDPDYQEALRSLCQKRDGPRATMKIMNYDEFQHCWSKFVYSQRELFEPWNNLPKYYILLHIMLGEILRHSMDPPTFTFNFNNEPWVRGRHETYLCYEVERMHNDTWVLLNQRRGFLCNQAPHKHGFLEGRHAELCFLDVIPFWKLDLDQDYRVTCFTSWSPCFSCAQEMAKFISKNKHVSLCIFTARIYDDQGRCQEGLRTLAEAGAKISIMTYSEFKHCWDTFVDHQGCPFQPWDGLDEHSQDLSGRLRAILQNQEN

**Q.** For `CCCCCc1ccc(OCCCC[n+]2ccc(C)cc2)c(CCCCC)c1`, which EC50 [1] is on record?
**A.** Its EC50 is > 160 µM (inactive).

**Q.** And the EC50 [2]?
**A.** Its EC50 is 0.516 µM (active).

**Q.** What about the IC50 [3] of the same compound?
**A.** The IC50 was 58 µM (inactive).

**Q.** What about the AC50 [4] of the same compound?
**A.** Its AC50 is 1.92 µM (active).

**Q.** And the AC50 [5]?
**A.** The AC50 was 21.7 µM (active).

**Q.** Which IC50 [6] does the source give for `O=C(Nc1cc(S(=O)(=O)Nc2ccc(Cl)cc2)ccc1O)c1ccc(S(=O)(=O)N2CCCCCC2)cc1` here?
**A.** Its IC50 is 73.7 µM (active).

**Q.** What about the IC50 [7] of the same compound?
**A.** The IC50 was 2.73 µM (active).

**Q.** With `Cc1ccc(C(=O)Nc2nnc(SCC(=O)N3CCCc4ccccc43)s2)cc1` as the compound, how does the AC50 [8] read?
**A.** Its AC50 is 1.3 µM (active).

**Q.** Which IC50 [9] does the source give for `Cn1c(SCc2cc(=O)n3cc(Br)ccc3n2)nnc1C1COc2ccccc2O1` (stereo unspecified) here?
**A.** Its IC50 is 25.2 µM (active).

**Q.** What about the IC50 [7] of the same compound?
**A.** Its IC50 is 17.8 µM (active).

**Q.** With `COc1ccc(C(=O)NC(=C(Cl)Cl)S(=O)(=O)c2ccc(C)cc2)cc1` as the compound, how does the EC50 [10] read?
**A.** The EC50 was 12.3 µM (active).

**Q.** And the IC50 [11]?
**A.** Its IC50 is 8.07 µM (active).

**Q.** What about the IC50 [12] of the same compound?
**A.** Its IC50 is > 20 µM (inactive).

**Q.** And the EC50 [13]?
**A.** The EC50 was > 20 µM (inactive).

**Q.** And the IC50 [14]?
**A.** The IC50 was 8.96 µM (active).

**Q.** What about the IC50 [15] of the same compound?
**A.** The IC50 was > 20 µM (inactive).

**Q.** Which IC50 [16] does the source give for `COc1cc(/C=C2/SC(=S)NC2=O)cc(Cl)c1OCc1cccc2ccccc12` here?
**A.** The IC50 was > 100 µM (not active).

**Q.** For `Fc1ccc2[nH]c3c(N4CCSCC4)ncnc3c2c1`, which EC50 [17] is on record?
**A.** Its EC50 is 13.4 µM (active).

**Q.** What about the EC50 [18] of the same compound?
**A.** The EC50 was 13.3 µM (active).

**Q.** What about the AC50 [8] of the same compound?
**A.** Its AC50 is 1.5 µM (active).

**Q.** And the AC50 [19]?
**A.** Its AC50 is 2.76 µM (active).

**Q.** What about the AC50 [20] of the same compound?
**A.** The AC50 was 30 µM (active).

**Q.** What about the AC50 [21] of the same compound?
**A.** The AC50 was 2.6 µM (active).

**Q.** Which results are given for `Cc1ccc(-c2cc[nH]c(=S)n2)cc1`?
**A.** AC50 [22]: 14.1 µM (inconclusive); EC50 [23]: > 104 µM (inactive); AC50 [24]: 14.1 µM (inconclusive); AC50 [25]: 10 µM (inconclusive)

**Q.** Which results are given for `CCc1ccc2nc(N(CCCN(C)C)C(=O)c3ccc(C(=O)c4ccccc4)cc3)sc2c1`?
**A.** CC50 [26]: 20.5 µM (active); IC50 [27]: > 20 µM (inactive); IC50 [28]: 13.2 µM (active); IC50 [29]: 11.6 µM (active)
